Earlier results as cited in patent publication US10226441B2, “Aging inhibitor” (NIHON SIZEN HAKKOH CO., LTD., priority 2014, dated 2019).

System: mice of the same species (SAM-P1, male)

COC1=C(OC)C(=O)C(C/C=C(\C)CC/C=C(\C)CC/C=C(\C)CC/C=C(\C)CC/C=C(\C)CC/C=C(\C)CC/C=C(\C)CC/C=C(\C)CC/C=C(\C)CCC=C(C)C)=C(C)C1=O [CoQ10, coenzyme Q10]
Average survival, Age in weeks (Non-Patent Literature 14): 73.98 weeks

COc1c(O)c(C)c(C/C=C(\C)CC/C=C(\C)CC/C=C(\C)CC/C=C(\C)CC/C=C(\C)CC/C=C(\C)CC/C=C(\C)CC/C=C(\C)CC/C=C(\C)CCC=C(C)C)c(O)c1OC [CoQ10H2]
Average survival (Days) (Non-Patent Literature 14): (519.64 ± 79.53) days
Average survival, Age in weeks (Non-Patent Literature 14): 74.234 weeks
Average survival (Non-Patent Literature 14, listed as reduced CoQ10): 519.64 days
